Laboratory results taken from patent US8436006B2, “2-amino-quinazoline derivatives useful as inhibitors of β-secretase (BACE)” (Jansssen Pharmaceutica N.V., priority 2004, dated 2013).

Assays:
[1] = target: T1, β-secretase (BACE) (Homo sapiens, UniProt P56817); test: BACE % Inhibition Assay (Example 161), (Aedens)-[…]-(Dabcyl K-amide) substrate; assay type: biochemical; settings: % error ±10%
T1 construct: purchased Panvera
Method: The following reagents were used in this assay: sodium acetate, PEG8000 (Sigma), DMSO, HEPES, (Aedens)-[…]-(Dabcyl K-amide) substrate, β-secretase (BACE) (Panvera), and 96-well plate (HE microplate, Molecular Devices).
The substrate stock solution was prepared in DMSO as a 10 mg/mL solution. The substrate working solution was prepared by diluting the 10 mg/mL stock solution with substrate assay buffer to a final concentration of 300 μg/mL. The β-secretase (BACE) working solution was prepared by diluting a 0.83 mg/mL BACE stock solution with enzyme assay buffer to a final concentration of 4 μg/mL.
Test compounds were dissolved in DMSO to 10 mM.
The screening procedure for this assay was as follows: 15 μL of BACE working solution was pipetted into each well of a 96-well plate. To each well was then pipetted 2 μL of test compound at the selected concentration. Test compound and BACE were then mixed with a pipettor and incubated for 20 min at room temperature. To each well was then added 10 μL of the substrate working solution. The plates were then incubated for 1 hour at room temperature.
The procedure for the blank was as follows. 15 μL of assay buffer was pipetted into each well to be used as a blank control. To each well was then added 2 μL of vehicle and 10 μL of substrate working solution. The plates were then incubated for 1 hour at room temperature.
The procedure for the positive control was as follows: 15 μl of BACE working solution was pipetted into each well to be used as a positive control. To each well was then pipetted 2 μL of vehicle. Vehicle and BACE were then mixed with a pipettor and incubated for 20 min at room temperature. To each well was then added 10 μL of the substrate working solution. The plates were then incubated for 1 hour at room temperature.
For test compounds, % inhibition was determined at each concentration as follows: % Inhibition=[[…]][FI(positive control)−FI(negative control)]

[2] = target: T1, β-secretase (BACE); test: BACE FS1% Inhibition Assay (Example 160); assay type: biochemical
Method: The following reagents were used in this assay: sodium acetate, PEB8000 (Sigma), DMSO, HEPES, FS1 substrate [[…]], β-secretase (BACE) (Panvera), and 96-well plate (HE microplate, Molecular Devices). […] The FS1-substrate stock solution was prepared in DMSO as a 10 mg/mL solution. The FS1-substrate working solution was prepared by diluting the 10 mg/mL stock solution with substrate assay buffer to a final concentration of 300 μg/mL. The β-secretase (BACE) working solution was prepared by diluting a 0.83 mg/mL BACE stock solution with enzyme assay buffer to a final concentration of 4 μg/mL. Test compounds were dissolved in DMSO to 10 mM. […] The screening procedure for this assay was as follows: 15 μL of BACE working solution was pipetted into each well of a 96-well plate. To each well was the pipetted 2 μL of test compound at the selected concentration. Test compound and BACE were then mixed with a pipettor and incubated for 20 min at room temperature. To each well was then added 10 μL of the FS1 substrate working solution. The plates were then incubated for 1 hour at room temperature. […] The procedure for the blank was as follows. 15 μL of assay buffer was pipetted into each well to be used as a blank control. To each well was then added 2 μL of vehicle and 10 μL of FS1-substrate working solution. The plates were then incubated for 1 hour at room temperature. […] The procedure for the positive control was as follows: 15 μL of BACE working solution was pipetted into each well to be used as a positive control. To each well was then pipetted 2 μL of vehicle. Vehicle and BACE were then mixed with a pipettor and incubated for 20 min at room temperature. To each well was then added 10 μL of the FS1 substrate working solution. The plates were then incubated for 1 hour at room temperature. […] For test compounds, % inhibition was determined at each concentration as follows: [formula]

T1 sequence (P56817 46-501): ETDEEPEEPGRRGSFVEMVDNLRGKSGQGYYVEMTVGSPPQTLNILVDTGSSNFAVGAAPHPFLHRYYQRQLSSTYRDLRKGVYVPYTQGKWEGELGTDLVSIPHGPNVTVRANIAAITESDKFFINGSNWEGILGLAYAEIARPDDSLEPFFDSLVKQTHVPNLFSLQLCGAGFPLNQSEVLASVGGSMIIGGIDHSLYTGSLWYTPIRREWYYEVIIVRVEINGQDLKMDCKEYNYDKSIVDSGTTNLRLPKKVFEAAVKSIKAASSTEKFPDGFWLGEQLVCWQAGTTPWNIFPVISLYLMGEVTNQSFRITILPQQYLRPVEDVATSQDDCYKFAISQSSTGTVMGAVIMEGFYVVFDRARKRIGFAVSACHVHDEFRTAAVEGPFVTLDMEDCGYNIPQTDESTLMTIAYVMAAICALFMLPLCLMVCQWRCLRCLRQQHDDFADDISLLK

SMILES	% Inhibition ([1]; 0.3 μM test compound)	% Inhibition ([1]; 1 μM test compound)	% Inhibition ([1]; 3 μM test compound)	% Inhibition (FS) ([2]; 0.3 μM test compound)	% Inhibition (FS) ([2]; 1 μM test compound)	% Inhibition (FS) ([2]; 3 μM test compound)
CCCC(CNC(=O)OC(C)(C)C)N1Cc2cc(Oc3ccccc3)ccc2N=C1N (stereo not drawn) [Compound 318]	32%	70%	103%	–	–	–
NC1=Nc2ccc(Oc3ccccc3)cc2CN1C(CNC(=O)C1CCCCC1)c1ccccc1 (stereo not drawn) [Compound 342]	50%	93%	–	–	–	–
CCCC(CNC(=O)C1CCCCC1)N1Cc2cc(Oc3ccccc3)ccc2N=C1N (stereo not drawn) [Compound 343]	81%	–	–	–	–	–
NC1=Nc2ccc(Oc3ccccc3)cc2CN1C(CNC(=O)CCC1CCCC1)C1CCCCC1 (stereo not drawn) [Compound 366]	64%	–	–	–	–	–
CC(C)CC(=O)NCC(C1CCCCC1)N1Cc2cc(Oc3ccccc3)ccc2N=C1N (stereo not drawn) [Compound 389]	85%	112%	120%	–	–	–
NC1=Nc2ccc(Oc3ccccc3)cc2CN1C(CCNC(=O)C1CCCCC1)C1CCCCC1 (stereo not drawn) [Compound 391]	35%	93%	115%	–	–	–
CC(=O)N1CCC(C(=O)NCCN2Cc3cc(-c4ccccc4)ccc3N=C2N)CC1 [Compound 702]	–	–	–	<30%	<30%	<30%
COC1CCCC(C(=O)NCCN2Cc3cc(-c4ccccc4)ccc3N=C2N)C1 (stereo not drawn) [Compound 703]	–	–	–	<30%	46%	83%
NC1=Nc2ccc(C3=CCCCC3)cc2CN1CCNC(=O)C1CCC(C(F)(F)F)CC1 (stereo not drawn) [Compound 704]	–	–	–	<30%	<30%	<30%
CC(=O)N1CCC(C(=O)NCCN2Cc3cc(C4=CCCCC4)ccc3N=C2N)CC1 [Compound 705]	–	–	–	<30%	<30%	<30%
COC1CCCC(C(=O)NCCN2Cc3cc(C4=CCCC4)ccc3N=C2N)C1 (stereo not drawn) [Compound 706]	–	–	–	<30%	<30%	<30%
NC1=Nc2ccc(C3=CCCC3)cc2CN1CCNC(=O)C1CCC(C(F)(F)F)CC1 (stereo not drawn) [Compound 707]	–	–	–	<30%	<30%	<30%
COc1ccccc1-c1ccc2c(c1)CN([C@@H](CCC(=O)N(C)Cc1csc(-c3ccccc3)n1)C1CCCCC1)C(N)=N2 [Compound 716]	–	–	–	<30%	<30%	72%
COc1ccccc1-c1ccc2c(c1)CN([C@@H](CCC(=O)N(C)Cc1cnn(-c3ccccc3)c1)C1CCCCC1)C(N)=N2 [Compound 717]	–	–	–	33%	39%	72%
COc1ccccc1-c1ccc2c(c1)CN([C@@H](CCC(=O)N(C)Cc1cc(C)no1)C1CCCCC1)C(N)=N2 [Compound 718]	–	–	–	<30%	30%	–
COc1ccccc1-c1ccc2c(c1)CN([C@@H](CCC(=O)N(C)Cc1cc(-c3ccccc3)on1)C1CCCCC1)C(N)=N2 [Compound 719]	–	–	–	31%	<30%	81%
CN(Cc1csc(-c2ccccc2)n1)C(=O)CC[C@@H](C1CCCCC1)N1Cc2cc(-c3ccccc3F)ccc2N=C1N [Compound 722]	–	–	–	35%	35%	78%
CN(Cc1cc(-c2ccccc2)on1)C(=O)CC[C@@H](C1CCCCC1)N1Cc2cc(-c3ccccc3F)ccc2N=C1N [Compound 724]	–	–	–	38%	<30%	65%
